Measurements: patent US20060167109A1, “Methods of reducing rhinovirus contagion and related compositions” (priority 2002, published 2006)

Assays:
[1] = system: 10 other human viral pathogens; assay: Antiviral specificity, viral cytopathic effect assays; format: cell-based
HRV3 = assay: Multiple rounds of replication; format: cell-based, human rhinovirus; details: 2 μM added four hours post-attachment
Protocol: The next experiments were designed to answer the question as to whether the addition of pleconaril after the uncoating stage could affect the ability of progeny virions to initiate subsequent rounds of replication, i.e. reduce the infectivity of progeny virions. Cells were infected with HRV3 at a low MOI (0.01 pfu/cell) at room temperature. After removal of unattached virus, fresh medium was added and the cells were shifted to the higher temperature to allow uncoating to proceed. Four hours post-attachment, pleconaril or DMSO alone was added to the cultures, and plates were frozen at 12 hours (upon completion of a single cycle of replication) and 24 hours (upon completion of a second round of replication) post-infection. Virus yield from both rounds of replication was determined in the viral cytopathic effect assay.
HeLa cells in 6 well plates were infected with HRV3 at an MOI of 0.001 or 0.01 pfu/cell for 1 hour at room temperature in duplicate. The virus inoculum was then removed and the monolayers washed twice with DPBS. The cells were overlaid with 3 mL of M199 medium with 5% FBS and placed at 33° C. (HRV3). After 4 hrs, half of the wells received pleconaril to a final concentration of 2 μM in 0.5% DMSO, and half received DMSO alone. […] Virus yield was determined in the cytopathic effect assay after 2 cycles of chloroform extraction.

HRV, four serotypes = assay: Virus yield reduction assay, single cycle of growth; format: cell-based, human rhinovirus; details: all four viruses, nontoxic drug concentrations, MOI 1, 12 hours
Protocol: To assess the inhibition by pleconaril of HRV production from a single cycle of virus replication, virus yield experiments were performed. Cells were infected at a multiplicity of infection (MOI) of 1 infectious virion per cell with virus that had been pre-treated with pleconaril at various drug concentrations. After 12 hours of infection (a single replication cycle), the amount of virus produced was quantified. Pleconaril inhibited virus production in a concentration dependent manner. The yield of progeny virus was reduced by >99% for all four viruses at nontoxic drug concentrations.
Virus was pretreated with various concentrations of pleconaril for 1 hour at 4° C. Confluent, 1-day-old monolayers of Hela (WIS) cells in 6 well plates were infected with virus at a multiplicity of infection (MOI) of approximately 1 plaque-forming unit per cell. After a 1 hour attachment period at 33° C., the inoculum was removed, the monolayers were washed 3 times with Dulbeccos modified phosphate buffer (DPBS)(JRH Biosciences, Lenexa, Kans.) and overlaid with 3 ml of media containing either the appropriate concentration of pleconaril or drug solvent (0.25% DMSO) alone. Incubation was continued for 12 hours at 33° C. and 2.5% CO2. All plates were frozen/thawed 3 times at −80° C. prior to quantification of virus yield in the virus cytopathic effect assay.

human plasma proteins = assay: Plasma protein binding; format: in vitro ADME

## Cc1cc(CCCOc2c(C)cc(-c3noc(C(F)(F)F)n3)cc2C)on1 [pleconaril, 3-[3,5-dimethyl-4-[3-(3-methyl-5-isoxazolyl)propoxy]phenyl]-5-(trifluoromethyl)-1,2,4-oxadiazole]
[1]
  activity against unrelated viruses: no activity
[1]; Homo sapiens, all ten viruses
  IC50: > 12.5 µM
HRV3; 12 hours
  yield of progeny virions from the first round of virus replication: little effect
HRV3; 24 hours
  second round of replication: completely prevented
HRV, four serotypes
  reduction of yield of progeny virus: > 99%
Human plasma proteins
  protein bound: > 99%
